Measured values as given in patent US9517238B2, “Compositions and methods for treating allergic inflammation through inhibition of NTRK1” (CHILDREN'S HOSPITAL MEDICAL CENTER, priority 2014, dated 2016).

Columns and labels:
[1] = system: NTRK1 expression in esophageal biopsies; experiment: RT-PCR analysis of NTRK1 in esophageal biopsies of EoE patients after swallowed steroid treatment; assay type: in vivo, human; settings: EoE patients who responded to swallowed steroid treatment (FPR, n=13) vs active EoE and controls; FIG. 4A
Method: FIG. 4. NTRK1, NGF, and EGR1 expression in human allergic inflammation. In A, RT-PCR analysis of NTRK1 in biopsies was performed in unaffected control patients (Ctrl, n=13), patients with active EoE (EoE, n=12), and EoE patients who responded to swallowed steroid treatment (fluticasone responders [FPR], n=13); ***p<0.001; ns, not significant. In B and C, the graphs show Pearson correlation of NTRK1 expression with IL-13 levels and peak eosinophil counts in EoE biopsies. […] In E, quantification of NTRK1 in control and active EoE biopsies is shown (n=5 each); *p<0.05. Expression level was normalized to the level of GAPDH. In F, RT-PCR analysis of NGF and CCL26 was performed in control and EoE biopsies (n=10 each); ****p<0.0001; ns, not significant. In G, amount of NGF and CCL26 protein was measured by ELISA in control and active EoE biopsies (n=5 each); *p<0.05; ns, not significant. […] In I, EGR1 mRNA was measured by RT-PCR in esophageal biopsies of unaffected control (Ctrl) patients and patients with active EoE (n=10 each). ***p<0.001. […]
In vitro experiments with epithelial cells prompted us to investigate whether NTRK1 is increased in epithelial cells in vivo during allergic responses. First, we assessed expression of NTRK1 mRNA in esophageal biopsies of control and EoE patients. […]

NTRK1 = target: T1, NTRK1 (Homo sapiens, UniProt P04629); experiment: NGF-mediated induction of EGR genes in TE-7 cells stably expressing NTRK1, with tyrosine kinase inhibitors; assay type: cell-based; settings: TE-7 epithelial cells, NGF stimulation
T1 construct: expressed in transfected cells
Source text: In order to further investigate the functional link between IL-13 and NGF signaling we generated two pools of TE-7 cells stably expressing NTRK1 that allowed us to simultaneously induce IL-13 and NGF/NTRK1 responses.
We further hypothesized that inhibition of NTRK1 kinase activity will prevent induction of EGR genes following NGF stimulation. To test this hypothesis we utilized two tyrosine kinase inhibitors lestaurtinib (CEP-701) and crizotinib that were previously reported as efficient blockers of NTRK1 auto-phosphorylation and downstream signaling.

T1 sequence (P04629 33-796): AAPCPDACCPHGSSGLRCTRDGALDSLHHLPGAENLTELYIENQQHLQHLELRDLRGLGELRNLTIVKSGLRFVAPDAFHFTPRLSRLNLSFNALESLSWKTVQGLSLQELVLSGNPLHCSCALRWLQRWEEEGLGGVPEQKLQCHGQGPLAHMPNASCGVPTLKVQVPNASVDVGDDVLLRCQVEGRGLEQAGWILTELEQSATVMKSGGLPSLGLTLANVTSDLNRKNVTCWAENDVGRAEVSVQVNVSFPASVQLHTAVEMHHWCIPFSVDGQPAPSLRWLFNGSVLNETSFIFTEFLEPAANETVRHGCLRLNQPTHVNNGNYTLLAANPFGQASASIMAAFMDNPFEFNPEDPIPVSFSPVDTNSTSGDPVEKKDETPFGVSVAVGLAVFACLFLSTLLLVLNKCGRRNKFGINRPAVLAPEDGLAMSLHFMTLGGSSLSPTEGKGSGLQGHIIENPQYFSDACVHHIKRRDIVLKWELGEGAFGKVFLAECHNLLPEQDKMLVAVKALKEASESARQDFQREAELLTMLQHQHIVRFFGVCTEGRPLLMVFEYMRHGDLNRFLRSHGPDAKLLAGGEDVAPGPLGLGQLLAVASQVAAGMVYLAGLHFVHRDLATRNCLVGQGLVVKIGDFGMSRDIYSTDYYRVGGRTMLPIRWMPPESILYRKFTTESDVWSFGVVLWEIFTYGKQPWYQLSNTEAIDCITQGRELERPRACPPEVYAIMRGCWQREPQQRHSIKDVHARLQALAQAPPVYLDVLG

CCC(=O)O[C@]1(C(=O)SCF)[C@H](C)C[C@H]2[C@@H]3C[C@H](F)C4=CC(=O)C=C[C@]4(C)[C@@]3(F)[C@@H](O)C[C@@]21C [fluticasone propionate]
NTRK1 mRNA expression in esophageal biopsies [1]: normalized levels

C[C@@H](Oc1cc(-c2cnn(C3CCNCC3)c2)cnc1N)c1c(Cl)ccc(F)c1Cl [crizotinib]
NGF-mediated increase in EGR1 mRNA (NTRK1; EGR1 mRNA): dramatically reduced | NGF-mediated increase in EGR3 mRNA (NTRK1; EGR3 mRNA): dramatically reduced
